Laboratory results from patent US5658908A (priority 1992, dated 1997).
Entries after “also recorded” stand apart in the source; their conditions may differ.

Legend:
[1] = Side effects on peripheral administration to rats and mice
[2] = test system: opioid receptor
[3] = molecular target: delta receptor (Mus musculus, UniProt P32300); assay: Delta opioid receptor agonist activity; conditions: in words
[4] = molecular target: T1, mouse vas deferens (Mus musculus, UniProt P32300); assay: cell-based
T1 construct: Vasa deferentia were removed from mice; from tissue; host or cells: mouse vas deferens

[5] = molecular target: T2, Mu Receptor (Rattus norvegicus, UniProt P33535); assay: Mu receptor binding, rat brain membranes; design: species or system rat (Sprague-Dawley); conditions: 125I-[D-Ala2,N-MePhe4,Met(O)ol5]enkephalin 0.1 nM, 24° C., 60 min, mean of (n) experiments, read-out: Mu Receptor IC50
T2 construct: Rat (Sprague-Dawley) brain membranes were prepared; from tissue; host or cells: rat (Sprague-Dawley) brain membranes

[6] = test system: guinea pig ileum; assay: Inhibition of electrically stimulated contraction of guinea pig ileum; assay type: cell-based; conditions: Cavia porcellus, mean of (n) experiments, read-out: Guinea Pig lleum ED50
[7] = test system: mu receptor; assay: Mu opioid receptor agonist activity; conditions: in words
[8] = Analgesia (test not described); assay type: in vivo; conditions: in words
[9] = test system: mu and delta opioid receptors; assay: Rodent tests of analgesia, muscle rigidity, respiratory depression and proconvulsant activity
[10] = molecular target: T1, mouse vas deferens; assay: cell-based; assay type: cell-based
[11] = molecular target: T3, Delta Receptor (Rattus norvegicus, UniProt P33533); assay: Delta receptor binding, rat brain membranes; design: species or system rat (Sprague-Dawley); conditions: 125I-[D-Ala2,D-Leu5]enkephalin 0.24 nM with mu-agonist morphiceptin analog, 24° C., 60 min, mean of (n) experiments, read-out: Delta Receptor IC50
T3 construct: Rat (Sprague-Dawley) brain membranes were prepared; from tissue; host or cells: rat (Sprague-Dawley) brain membranes
T3 sequence (P33533 whole entry): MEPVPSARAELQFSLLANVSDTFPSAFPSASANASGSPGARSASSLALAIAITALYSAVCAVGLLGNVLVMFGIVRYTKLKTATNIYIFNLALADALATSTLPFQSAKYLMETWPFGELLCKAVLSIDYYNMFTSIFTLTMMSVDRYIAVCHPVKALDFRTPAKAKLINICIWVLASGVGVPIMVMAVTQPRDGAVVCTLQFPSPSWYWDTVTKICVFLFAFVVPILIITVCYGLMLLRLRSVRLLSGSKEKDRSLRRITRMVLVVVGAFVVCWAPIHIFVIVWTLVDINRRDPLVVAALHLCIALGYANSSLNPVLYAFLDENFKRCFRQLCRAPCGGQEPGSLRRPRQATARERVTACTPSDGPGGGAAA

Sequence of delta receptor (P32300 whole entry): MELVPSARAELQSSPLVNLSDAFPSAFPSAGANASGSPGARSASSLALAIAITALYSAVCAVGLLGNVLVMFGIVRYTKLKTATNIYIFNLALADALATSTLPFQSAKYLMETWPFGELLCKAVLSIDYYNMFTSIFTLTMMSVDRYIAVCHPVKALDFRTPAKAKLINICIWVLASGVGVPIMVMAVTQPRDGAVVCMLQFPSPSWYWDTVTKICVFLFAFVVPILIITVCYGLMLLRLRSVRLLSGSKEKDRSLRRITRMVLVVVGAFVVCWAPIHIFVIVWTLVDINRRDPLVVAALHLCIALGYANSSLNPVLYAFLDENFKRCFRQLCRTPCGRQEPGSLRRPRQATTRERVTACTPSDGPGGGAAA
T1 sequence (P32300 whole entry): as above
T2 sequence (P33535 whole entry): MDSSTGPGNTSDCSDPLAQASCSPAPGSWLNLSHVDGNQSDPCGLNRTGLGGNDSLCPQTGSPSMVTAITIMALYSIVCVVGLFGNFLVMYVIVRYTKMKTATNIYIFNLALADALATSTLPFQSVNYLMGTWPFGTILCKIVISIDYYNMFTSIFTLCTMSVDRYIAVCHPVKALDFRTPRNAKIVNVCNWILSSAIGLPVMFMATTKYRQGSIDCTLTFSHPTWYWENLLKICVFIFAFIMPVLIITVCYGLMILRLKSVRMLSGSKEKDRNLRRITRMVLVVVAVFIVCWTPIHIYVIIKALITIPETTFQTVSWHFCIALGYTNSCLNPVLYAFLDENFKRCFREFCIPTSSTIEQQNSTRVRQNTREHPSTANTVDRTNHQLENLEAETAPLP

C=CCN1C[C@H](C)N([C@H](c2cccc(O)c2)c2cc(Br)c(C(=O)N(CC)CC)s2)C[C@H]1C (relative stereo) [Compound B, 5-((αR*)-α-((2S*,5R*)-4-allyl-2,5-dimethyl-1-piperazinyl)-3-hydroxybenzyl)-3-bromo-N,N-diethyl-2-thiophenecarboxamide]
side effects when administered peripherally [1]: does not produce evident side effects
opioid receptor ligand selectivity [2]: highly selective opioid receptor ligand species
delta receptor agonist activity [3]: predominantly delta receptor agonist; also recorded: delta-opioid agonist

CCN(CC)C(=O)c1ccc([C@H](c2cccc(O)c2)N2C[C@@H](C)N(C)C[C@H]2C)cc1 [Example 13, (+)-N,N-diethyl-4-(3-hydroxy-(αR)-α-((2R,5R) -2,4,5-trimethyl-1-piperazinyl)benzyl)benzamide]
Kb [4]: 100 nM
IC50 [5]: 2400 nM
IC50 [6]: > 10000 nM

C=CCN1C[C@H](C)N([C@@H](c2ccccc2)c2cccc(O)c2)C[C@H]1C (relative stereo) [Compound I]
mu receptor agonist activity [7]: significant agonist activity
analgesic activity [8]: strong analgesics
delta receptor agonist activity [3]: delta-receptor opiate properties

C=CCN1C[C@H](C)N([C@@H](c2ccsc2)c2cccc(O)c2)C[C@H]1C (relative stereo) [Compound K]
mu receptor agonist activity [7]: significant agonist activity
analgesic activity [8]: strong analgesics
delta receptor agonist activity [3]: delta-receptor opiate properties

C=CCN1C[C@H](C)N([C@@H](c2cccc(O)c2)c2cccc(C(=O)N(CC)CC)c2)C[C@H]1C [Example 85, (+)-3-((αR)-α-((2S,5R)-4-Allyl-2,5-dimethyl-1-piperazinyl)-3-hydroxybenzyl)-N,N-diethylbenzamide]
mu receptor agonist activity ([7]; listed as Compound C): mixed mu/delta opioid agonist; also recorded: agonism at both mu and delta opioid receptors
analgesic potency compared to morphine [9]: analgesic potency comparable to mu-analgesic morphine
muscle rigidity and respiratory depression compared to morphine [9]: much reduced extent of muscle rigidity and respiratory depression
proconvulsant activity [9]: free of proconvulsant activity
delta receptor agonist activity ([3]; listed as Compound C): mixed mu/delta opioid agonist; also recorded: agonism at both mu and delta opioid receptors
IC50 [6]: 18 nM
IC50 [10]: 7.3 nM
IC50 [11]: 1.9 nM
